Experimental data published in US9420769B2, “Chimeric non-human animal carrying human hepatocyte” (PHOENIXBIO CO., LTD., priority 2011, dated 2016).
Where a name gives a salt, the structure may show the parent alone.

Key:
[1] = MDZ metabolic activity in small intestinal microsomes; format: in vitro ADME, mouse; details: MDZ 50 umol/L, 0.5 mg/mL microsomes, 37° C., 10 minutes
Description: (§1) On weeks 10 to 11 after transplantation (14-week-old), each of chimeric mice and non-transplanted cyp3a (KO/KO)/uPA(+/+)/SCID(+/+) mice [N2F1] was dissected and thus the liver, the small intestine, and blood were collected. The collected liver and small intestine were cut into appropriate sizes. The resulting pieces were immersed in 1 mL of RNA Later (Life Technologies Corporation, Cat No. AM7020), stored at 4° C. overnight, and then stored at −80° C. In addition, portions of the liver and the small intestine were embedded in an OCT compound (Tissue-Tek) for the preparation of frozen sections, and then cryopreserved with liquid nitrogen. Microsomes were prepared from the remaining small intestine and liver portions by procedures such as centrifugation. The thus prepared microsomes were stored at −80° C.
(§2) MDZ metabolic activity was determined using microsomes from the liver and the small intestine from each mouse prepared in Example 2 above. In an experiment using hepatic microsomes, MDZ with a final concentration of 50 umol/L was incubated in hepatic microsomes with a final concentration of 0.1 mg/mL at 37° C. for 5 minutes. […] 1′- and 4-hydroxylated metabolites of MDZ were measured using LC-MS/MS.

[2] = MDZ metabolic activity in hepatic microsomes; format: in vitro ADME, mouse; details: cyp3a (KO/KO)/uPA(+/+)/SCID(+/+) chimeric mice [N2F1] compared with PXB mice; MDZ 50 umol/L, 0.1 mg/mL microsomes, 37° C., 5 minutes; 1'- and 4-hydroxylated metabolites
Description: as §1, §2

[3] = Metabolic studies for nefazodone hydrochloride (metabolite profiles in blood plasma and urine after peroral administration); format: in vivo, mouse
Description: Eight (8) mg of free/mL nefazodone hydrochloride suspended in 0.5% methylcellulose (resulting in a dose of […].) was forcibly administered perorally twice in a volume of 5 mL/kg b.w. at each instance to four (two male and two female mice) cyp3a (KO/KO)/uPA(+/+)/SCID(+/+) mice [N4F1] (week 8 after transplantation (11-week-old)) obtained in Example 8 above by transplantation of human hepatocytes.
Immediately after the first peroral administration of nefazodone hydrochloride, the animals were housed in metabolic cages. Urine was sampled at a time 0 to 8 hours after administration and at a time 8 to 24 hours after administration, at room temperature. After the sampling of urine, the 2nd peroral administration of nefazodone hydrochloride was performed. One (1) hour after administration, blood, small intestine, and liver samples were collected. Immediately after blood collection, centrifugation (1000×g, 4° C. for 10 minutes) was performed to prepare blood plasma. Immediately after collection, urine and blood plasma were stored at −80° C. The PXB mice and the SCID(+/+) mice were similarly treated, and thus blood plasma and urine samples were obtained.
Acetonitrile was added to the thus obtained blood plasma and urine, in an amount equivalent thereto, for deproteinization. Centrifugal filtration (Ultrafree-MC centrifugal filtration tube; 0.45 μm, 9500×g, 2 min, 4° C.) was then performed. The thus obtained filtrates were designated as analytical samples.

[4] = PXB mice, 10 mg free/kg peroral, 1 hour after 2nd administration
[5] = SCID(+/+) mice, 10 mg free/kg peroral, 1 hour after 2nd administration
[6] = cyp3a (KO/KO)/uPA(+/+)/SCID(+/+) chimeric mice [N4F1], 10 mg free/kg peroral, 1 hour after 2nd administration

## Cc1ncc2n1-c1ccc(Cl)cc1C(c1ccccc1F)=NC2 [MDZ, Midazolam]
[1]; cyp3a (KO/KO)/uPA(+/+)/SCID(+/+) chimeric mice [N2F1] compared with PXB mice
  MDZ metabolic activity in small intestinal microsomes: lower than that of the PXB mice
[1]; cyp3a (KO/KO)/uPA(+/+)/SCID(+/+) chimeric mice [N2F1] compared with non-transplanted cyp3a (KO/KO)/uPA(+/+)/SCID(+/+) mice [N2F1]
  MDZ metabolic activity in small intestinal microsomes: almost the same as that of the non-transplanted
[2]
  MDZ metabolic activity in hepatic microsomes: almost the same

## CCc1nn(CCCN2CCN(c3cccc(Cl)c3)CC2)c(=O)n1CCOc1ccccc1 [nefazodone hydrochloride]
[3]; [4]
  metabolites detected in blood plasma: Triazoledione metabolite alone was detected
  unchanged nefazodone in blood plasma: not detected
[3]; PXB mice, 10 mg free/kg peroral, urine 0 to 24 hours after administration
  metabolites detected in urine: metabolite C alone was detected
[3]; [5]
  metabolites detected in blood plasma: Triazoledione metabolite alone was detected
  unchanged nefazodone in blood plasma: not detected
[3]; SCID(+/+) mice, 10 mg free/kg peroral, urine 0 to 24 hours after administration
  metabolites detected in urine: metabolite C alone was detected
[3]; [6]
  human-type metabolites detected in blood plasma, in addition to Triazoledione metabolite: OH-NEF and p-OH-NEF
  unchanged nefazodone in blood plasma: detected
[3]; cyp3a (KO/KO)/uPA(+/+)/SCID(+/+) chimeric mice [N4F1], 10 mg free/kg peroral, urine 0 to 24 hours after administration
  human-type metabolites detected in urine: mCPP and metabolite D
[3]; cyp3a (KO/KO)/uPA(+/+)/SCID(+/+) chimeric mice, unlike PXB mice and SCID(+/+) mice
  metabolic profiles: reflected the human drug-metabolizing system
